Data reported in PubChem BioAssay AID1963831 (Molecular Pharmacology Branch, DTP, NCI, 2024).

Test system: 889142-216-R-J1-PDC complex spheroid viability
Test: Anticancer human tumor 889142-216-R-J1-PDC patient-derived bladder carcinoma cell line growth inhibition [POLQ]
Details: for IC50: curve of first compound; for viability, T/C: stronger effect = lower value
In short: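 Patient-derived tumour cells were co-cultured with HUVEC and mesenchymal stem cells as multicellular spheroids at 37 °C. They were treated with POLQ inhibitors (novobiocin, ART-558, RP6685) alone or combined with other agents. Top concentrations were at or near clinical Cmax (otherwise 10 microM; SN-38 at 1 microM), decreasing in half-log steps.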

[1] = second compound 0.0316 µM, first compound 0.0316 µM
[2] = second compound 0.0316 µM, first compound 0.1 µM
[3] = second compound 0.0316 µM, first compound 0.316 µM
[4] = second compound 0.0316 µM, first compound 1 µM
[5] = second compound 0.0316 µM, first compound 3.16 µM
[6] = second compound 0.0316 µM, first compound 10 µM
[7] = second compound 0.1 µM, first compound 0.0316 µM
[8] = second compound 0.1 µM, first compound 0.1 µM
[9] = second compound 0.1 µM, first compound 0.316 µM
[10] = second compound 0.1 µM, first compound 1 µM
[11] = second compound 0.1 µM, first compound 3.16 µM
[12] = second compound 0.1 µM, first compound 10 µM
[13] = second compound 0.316 µM, first compound 0.0316 µM
[14] = second compound 0.316 µM, first compound 0.1 µM
[15] = second compound 0.316 µM, first compound 0.316 µM
[16] = second compound 0.316 µM, first compound 1 µM
[17] = second compound 0.316 µM, first compound 3.16 µM
[18] = second compound 0.316 µM, first compound 10 µM
[19] = second compound 1 µM, first compound 0.0316 µM
[20] = second compound 1 µM, first compound 0.1 µM
[21] = second compound 1 µM, first compound 0.316 µM
[22] = second compound 1 µM, first compound 1 µM
[23] = second compound 1 µM, first compound 3.16 µM
[24] = second compound 1 µM, first compound 10 µM
[25] = second compound 3.16 µM, first compound 0.0316 µM
[26] = second compound 3.16 µM, first compound 0.1 µM
[27] = second compound 3.16 µM, first compound 0.316 µM
[28] = second compound 3.16 µM, first compound 1 µM
[29] = second compound 3.16 µM, first compound 3.16 µM
[30] = second compound 3.16 µM, first compound 10 µM
[31] = second compound 10 µM, first compound 0.0316 µM
[32] = second compound 10 µM, first compound 0.1 µM
[33] = second compound 10 µM, first compound 0.316 µM
[34] = second compound 10 µM, first compound 1 µM
[35] = second compound 10 µM, first compound 3.16 µM
[36] = second compound 10 µM, first compound 10 µM
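Also: spheroids exposed to compounds for seven days.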
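For viability, T/C in this document: 100% = DMSO vehicle control viability.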

With `O=c1[nH]cc(F)c(=O)[nH]1` + Cc1cccc(N(C)C(=O)C2C(O)CCN2c2nc(C)cc(C(F)(F)F)c2C#N)c1 the IC50 (second compound 0.0316 µM) was over 10000 nM, the IC50 (second compound 0.1 µM) was over 10000 nM and the IC50 (second compound 0.316 µM) was over 10000 nM. The IC50 (second compound 1 µM) was over 10000 nM, the IC50 (second compound 3.16 µM) was over 10000 nM and the IC50 (second compound 10 µM) was over 10000 nM. For the same molecule, the viability, T/C [1] was 96%, the viability, T/C [2] was 85.2% and the viability, T/C [3] was 81.1%. For the same molecule, the viability, T/C [4] was 94%, the viability, T/C [5] was 63.6% and the viability, T/C [6] was 61%. For the same molecule, the viability, T/C [7] was 102%, the viability, T/C [8] was 84.3% and the viability, T/C [9] was 75.9%. It also gave a viability, T/C [10] of 54.4%, a viability, T/C [11] of 63.7% and a viability, T/C [12] of 65.1%. For the same molecule, the viability, T/C [13] was 109%, the viability, T/C [14] was 99.3% and the viability, T/C [15] was 73.6%. For the same molecule, the viability, T/C [16] was 71.3%, the viability, T/C [17] was 79.1% and the viability, T/C [18] was 77.7%. For the same molecule, the viability, T/C [19] was 93.4%, the viability, T/C [20] was 93.2% and the viability, T/C [21] was 74.3%. For the same molecule, the viability, T/C [22] was 72%, the viability, T/C [23] was 71.8% and the viability, T/C [24] was 73.1%. For the same molecule, the viability, T/C [25] was 80.8%, the viability, T/C [26] was 87.6% and the viability, T/C [27] was 80.3%. The viability, T/C [28] was 88.9%, the viability, T/C [29] was 83% and the viability, T/C [30] was 65.9%. For the same molecule, the viability, T/C [31] was 71%, the viability, T/C [32] was 79.9% and the viability, T/C [33] was 83.3%. It also gave a viability, T/C [34] of 64.1%, a viability, T/C [35] of 70.3% and a viability, T/C [36] of 65%.
`COc1cccc2c1C(=O)c1c(O)c3c(c(O)c1C2=O)CC(O)(C(=O)CO)CC3OC1CC(N)C(O)C(C)O1` (centres undefined) + COC1C(OC(N)=O)C(O)C(Oc2ccc3c(O)c(NC(=O)c4ccc(O)c(CC=C(C)C)c4)c(=O)oc3c2C)OC1(C)C showed an IC50 (second compound 0.0316 µM) of 170 nM, an IC50 (second compound 0.1 µM) of 164 nM and an IC50 (second compound 0.316 µM) of 173 nM. It also gave an IC50 (second compound 1 µM) of 173 nM, an IC50 (second compound 3.16 µM) of 254 nM and an IC50 (second compound 10 µM) of 219 nM. It also gave a viability, T/C [1] of 59.9%, a viability, T/C [2] of 68.7% and a viability, T/C [3] of 33.4%. The viability, T/C [4] was 2.42%, the viability, T/C [5] was 0.42% and the viability, T/C [6] was 0.92%. The viability, T/C [7] was 53.4%, the viability, T/C [8] was 67.9% and the viability, T/C [9] was 36%. For the same molecule, the viability, T/C [10] was 4.22%, the viability, T/C [11] was 0.75% and the viability, T/C [12] was 0.62%. It also gave a viability, T/C [13] of 56.7%, a viability, T/C [14] of 67.5% and a viability, T/C [15] of 36.8%. The viability, T/C [16] was 1.29%, the viability, T/C [17] was 0.94% and the viability, T/C [18] was 0.7%. It also gave a viability, T/C [19] of 60.6%, a viability, T/C [20] of 63.1% and a viability, T/C [21] of 37.3%. It also gave a viability, T/C [22] of 3.64%, a viability, T/C [23] of 0.4% and a viability, T/C [24] of 1.06%. For the same molecule, the viability, T/C [25] was 62.3%, the viability, T/C [26] was 59.1% and the viability, T/C [27] was 47.5%. For the same molecule, the viability, T/C [28] was 2.54%, the viability, T/C [29] was 0.84% and the viability, T/C [30] was 0.98%. For the same molecule, the viability, T/C [31] was 62%, the viability, T/C [32] was 62.5% and the viability, T/C [33] was 44.3%. The viability, T/C [34] was 2.05%, the viability, T/C [35] was 1.06% and the viability, T/C [36] was 0.92%.
